Laboratory results from patent US20210070748A1, “INHIBITORS OF BRUTONS TYROSINE KINASE” (Pharmacyclics LLC, priority 2015, published 2021).
Like-named read-outs stand apart in the source and are kept apart here.

How the values were obtained:
Format in all cases: biochemical
LCK = LCK (Homo sapiens, UniProt P06239); assay: Inhibition of a panel of kinases, in vitro HotSpot kinase assay: LCK; settings: read-out: IC50 LCK
SRC = SRC (Homo sapiens, UniProt P12931); assay: Inhibition of a panel of kinases, in vitro HotSpot kinase assay: SRC
Sequence of SRC (P12931 whole entry): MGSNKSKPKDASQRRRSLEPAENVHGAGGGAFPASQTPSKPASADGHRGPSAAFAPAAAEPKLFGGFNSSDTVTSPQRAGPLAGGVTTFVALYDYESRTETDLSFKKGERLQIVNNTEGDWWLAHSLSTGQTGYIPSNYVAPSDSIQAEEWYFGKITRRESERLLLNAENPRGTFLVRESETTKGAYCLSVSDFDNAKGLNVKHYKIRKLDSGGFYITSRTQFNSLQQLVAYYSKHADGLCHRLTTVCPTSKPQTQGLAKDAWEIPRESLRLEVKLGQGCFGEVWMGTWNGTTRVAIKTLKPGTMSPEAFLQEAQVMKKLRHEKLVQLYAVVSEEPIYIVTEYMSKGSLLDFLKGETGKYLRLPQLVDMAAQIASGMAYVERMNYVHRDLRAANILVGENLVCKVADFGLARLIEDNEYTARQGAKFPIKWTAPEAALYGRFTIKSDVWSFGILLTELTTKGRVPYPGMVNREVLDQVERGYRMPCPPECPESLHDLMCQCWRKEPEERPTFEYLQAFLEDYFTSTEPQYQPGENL
Protocol: (§1) The degree of inhibition of a panel of kinases is determined using the in vitro HotSpot kinase assay (purified enzymes, ^33P-ATP, an appropriate substrate and 1 μM ATP).

EGFR = EGFR (Homo sapiens, UniProt P00533); assay: Inhibition of a panel of kinases, in vitro HotSpot kinase assay: EGFR
Sequence of EGFR (P00533 25-1210): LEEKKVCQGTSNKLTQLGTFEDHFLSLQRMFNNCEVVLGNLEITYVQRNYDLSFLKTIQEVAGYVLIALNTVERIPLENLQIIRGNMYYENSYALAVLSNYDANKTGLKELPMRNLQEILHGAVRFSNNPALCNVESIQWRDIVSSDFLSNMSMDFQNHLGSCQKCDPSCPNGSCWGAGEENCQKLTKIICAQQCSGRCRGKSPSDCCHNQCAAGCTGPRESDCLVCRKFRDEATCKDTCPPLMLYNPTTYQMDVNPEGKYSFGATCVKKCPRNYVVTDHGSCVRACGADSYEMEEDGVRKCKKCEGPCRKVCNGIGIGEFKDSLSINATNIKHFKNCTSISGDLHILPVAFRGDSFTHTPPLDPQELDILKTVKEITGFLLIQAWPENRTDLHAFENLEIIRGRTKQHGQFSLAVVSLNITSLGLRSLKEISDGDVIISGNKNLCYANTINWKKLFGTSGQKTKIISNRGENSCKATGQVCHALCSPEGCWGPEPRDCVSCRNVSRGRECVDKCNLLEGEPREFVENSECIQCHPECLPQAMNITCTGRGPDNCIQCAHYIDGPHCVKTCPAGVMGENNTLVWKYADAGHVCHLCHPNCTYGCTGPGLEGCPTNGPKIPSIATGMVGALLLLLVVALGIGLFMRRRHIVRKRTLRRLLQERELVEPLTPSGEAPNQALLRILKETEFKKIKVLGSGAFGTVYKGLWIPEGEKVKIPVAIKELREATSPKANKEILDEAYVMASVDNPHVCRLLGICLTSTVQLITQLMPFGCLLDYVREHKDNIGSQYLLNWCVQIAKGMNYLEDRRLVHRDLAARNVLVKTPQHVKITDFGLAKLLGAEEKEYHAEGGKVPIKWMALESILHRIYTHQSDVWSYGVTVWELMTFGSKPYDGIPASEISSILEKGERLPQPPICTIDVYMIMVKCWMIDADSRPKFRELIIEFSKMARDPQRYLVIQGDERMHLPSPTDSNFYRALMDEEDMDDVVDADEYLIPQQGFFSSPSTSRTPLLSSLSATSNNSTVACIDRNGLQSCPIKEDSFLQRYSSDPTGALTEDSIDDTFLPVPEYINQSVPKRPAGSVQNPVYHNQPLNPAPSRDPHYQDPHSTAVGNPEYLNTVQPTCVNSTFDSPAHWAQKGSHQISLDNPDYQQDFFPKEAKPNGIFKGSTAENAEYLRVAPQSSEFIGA
Protocol: as §1

BTK-WT = target: T1, BTK-WT (Homo sapiens, UniProt Q06187); assay: Btk in vitro inhibitory activity (one of Method A TR-FRET, Method B electrophoretic mobility shift, Method C radiometric filter binding); settings: read-out: IC50 BTK-WT
T1 construct: purified from insect cells as a full-length construct containing an N-terminal 6X-His tag; His6 (N); made in house; host or cells: insect cells (baculovirus Sf21 in Method B)
T1 sequence (Q06187 whole entry): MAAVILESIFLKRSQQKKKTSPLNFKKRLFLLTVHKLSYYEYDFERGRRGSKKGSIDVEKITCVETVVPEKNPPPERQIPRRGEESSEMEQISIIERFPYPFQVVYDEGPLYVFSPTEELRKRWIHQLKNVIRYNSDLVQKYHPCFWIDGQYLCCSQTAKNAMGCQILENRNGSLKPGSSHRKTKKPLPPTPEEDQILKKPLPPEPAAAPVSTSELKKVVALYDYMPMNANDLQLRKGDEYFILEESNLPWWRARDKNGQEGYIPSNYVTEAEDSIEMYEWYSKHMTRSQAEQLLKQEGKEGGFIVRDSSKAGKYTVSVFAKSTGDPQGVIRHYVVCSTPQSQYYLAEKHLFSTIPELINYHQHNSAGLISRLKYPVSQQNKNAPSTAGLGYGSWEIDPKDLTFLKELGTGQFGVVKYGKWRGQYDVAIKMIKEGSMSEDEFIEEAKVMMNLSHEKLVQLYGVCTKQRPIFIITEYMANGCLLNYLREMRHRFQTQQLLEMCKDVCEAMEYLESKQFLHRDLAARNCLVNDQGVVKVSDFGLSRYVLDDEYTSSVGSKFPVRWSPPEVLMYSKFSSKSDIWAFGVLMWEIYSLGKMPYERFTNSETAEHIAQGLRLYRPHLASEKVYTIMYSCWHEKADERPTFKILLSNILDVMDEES

JAK3 = target: T2, JAK3 (Homo sapiens, UniProt P52333); assay: Inhibition of a panel of kinases, in vitro HotSpot kinase assay: JAK3; settings: read-out: IC50 JAK3
T2 sequence (P52333 1-1124): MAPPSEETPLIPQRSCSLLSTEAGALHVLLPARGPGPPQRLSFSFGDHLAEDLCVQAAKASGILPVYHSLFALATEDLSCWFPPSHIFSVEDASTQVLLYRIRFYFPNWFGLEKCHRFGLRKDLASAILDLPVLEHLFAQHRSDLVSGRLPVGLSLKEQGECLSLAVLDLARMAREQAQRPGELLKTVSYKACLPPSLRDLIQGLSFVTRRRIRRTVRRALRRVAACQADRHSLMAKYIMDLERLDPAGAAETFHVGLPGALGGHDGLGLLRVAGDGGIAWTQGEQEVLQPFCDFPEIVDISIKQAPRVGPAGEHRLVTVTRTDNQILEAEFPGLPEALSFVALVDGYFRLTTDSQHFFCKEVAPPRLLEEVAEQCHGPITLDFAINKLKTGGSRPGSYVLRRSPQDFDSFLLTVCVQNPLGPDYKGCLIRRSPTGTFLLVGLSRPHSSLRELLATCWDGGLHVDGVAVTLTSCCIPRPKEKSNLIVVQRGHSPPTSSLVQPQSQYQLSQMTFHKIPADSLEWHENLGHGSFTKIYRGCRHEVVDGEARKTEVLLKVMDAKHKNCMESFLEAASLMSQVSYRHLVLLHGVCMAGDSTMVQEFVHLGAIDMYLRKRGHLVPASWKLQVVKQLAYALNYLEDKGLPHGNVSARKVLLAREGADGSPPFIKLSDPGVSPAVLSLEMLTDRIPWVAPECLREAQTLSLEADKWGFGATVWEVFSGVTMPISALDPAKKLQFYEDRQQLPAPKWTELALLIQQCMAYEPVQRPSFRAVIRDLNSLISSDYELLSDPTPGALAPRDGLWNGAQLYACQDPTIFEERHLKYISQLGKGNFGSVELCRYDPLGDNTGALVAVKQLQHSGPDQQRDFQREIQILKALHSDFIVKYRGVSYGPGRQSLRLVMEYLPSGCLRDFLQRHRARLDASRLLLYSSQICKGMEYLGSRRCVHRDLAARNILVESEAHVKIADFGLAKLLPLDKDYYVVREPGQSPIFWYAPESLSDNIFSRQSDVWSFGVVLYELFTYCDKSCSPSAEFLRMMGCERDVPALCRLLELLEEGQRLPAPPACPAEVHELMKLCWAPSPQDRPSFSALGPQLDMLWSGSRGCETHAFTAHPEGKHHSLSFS

[1] = Table 13, A compounds, 1 μM ATP

Sequence of LCK (P06239 whole entry): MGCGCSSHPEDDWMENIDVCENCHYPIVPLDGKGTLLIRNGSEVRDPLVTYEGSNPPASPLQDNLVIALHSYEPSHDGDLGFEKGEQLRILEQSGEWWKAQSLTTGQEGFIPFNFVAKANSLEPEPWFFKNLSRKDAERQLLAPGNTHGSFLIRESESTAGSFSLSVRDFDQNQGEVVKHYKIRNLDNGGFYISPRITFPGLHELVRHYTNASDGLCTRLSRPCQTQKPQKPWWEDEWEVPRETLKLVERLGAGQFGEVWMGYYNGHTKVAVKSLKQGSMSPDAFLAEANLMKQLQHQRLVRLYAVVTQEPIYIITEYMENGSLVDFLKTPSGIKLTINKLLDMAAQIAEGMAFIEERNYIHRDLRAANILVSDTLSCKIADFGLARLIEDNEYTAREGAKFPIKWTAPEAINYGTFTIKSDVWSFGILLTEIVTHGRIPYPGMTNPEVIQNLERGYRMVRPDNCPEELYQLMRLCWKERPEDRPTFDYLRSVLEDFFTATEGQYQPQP

SMILES | IC50 (LCK; [1]) [nM] | IC50 (SRC; [1]) [nM] | IC50 (EGFR; [1]) [nM] | IC50 (BTK-WT; Table 13, A compounds) [nM] | IC50 (JAK3; [1]) [nM] | IC50 (LCK; E compounds, Table 17) [nM] | IC50 (SRC; E compounds, Table 17) [nM] | IC50 (EGFR; E compounds, Table 17) [nM] | IC50 (BTK-WT; E compounds, Table 17) [nM] | IC50 (JAK3; E compounds, Table 17) [nM]
CN1CCC(n2cc(Nc3nc(N4CCC[C@@H](n5ccc6cc(C7CC7)ccc6c5=O)C4)cnc3C(N)=O)cn2)CC1 [Example A-178, 5-[(3R)-3-(6-cyclopropyl-1-oxo-1,2-dihydroisoquinolin-2-yl)piperidin-1-yl]-3-{[1-(1-methylpiperidin-4-yl)-1H-pyrazol-4-yl]amino}pyrazine-2-carboxamide] | 100 to 1000 | 100 to 1000 | 1000 to 10000 | ≤ 10 | 1000 to 10000 |  |  |  |  | 
C[C@@H]1[C@H](NC(=O)c2ccc(C3CC3)cn2)CCCN1c1cnc(C(N)=O)c(Nc2ccc(N3CCN(C)CC3)cc2)n1 [Example A-179, 5-[(2R,3R)-3-(5-cyclopropyl-pyridine-2-amido)-2-methylpiperidin-1-yl]-3-{[4-(4-methylpiperazin-1-yl)phenyl]amino}pyrazine-2-carboxamide] | 100 to 1000 | 10 to 100 | 100 to 1000 | ≤ 10 | 1000 to 10000 |  |  |  |  | 
C[C@@H]1[C@H](NC(=O)c2ccc(C3CC3)cc2Cl)CCCN1c1cnc(C(N)=O)c(Nc2ccc(N3CCN(C)CC3)cc2)n1 [Example A-180, 5-[(2R,3R)-3-(2-chloro-4-cyclopropylbenzamido)-2-methylpiperidin-1-yl]-3-{[4-(4-methylpiperazin-1-yl)phenyl]amino}pyrazine-2-carboxamide] | 10 to 100 | 100 to 1000 | 100 to 1000 | ≤ 10 | 1000 to 10000 |  |  |  |  | 
C[C@@H]1[C@H](NC(=O)c2ccc(C3CC3)cc2)CCCN1c1cnc(C(N)=O)c(Nc2cc(CN3CCCCC3)ns2)n1 [Example A-181, 5-[(2R,3R)-3-(4-cyclopropylbenzamido)-2-methylpiperidin-1-yl]-3-{[3-(piperidin-1-ylmethyl)-1,2-thiazol-5-yl]amino}pyrazine-2-carboxamide] | 10 to 100 | 10 to 100 | 1000 to 10000 | ≤ 10 | 100 to 1000 |  |  |  |  | 
C[C@@H]1[C@H](NC(=O)c2ccc(C3CC3)cc2)CCCN1c1cnc(C(N)=O)c(Nc2cnn(CCN(C)C)c2)n1 [Example A-182, 5-[(2R,3R)-3-(4-cyclopropylbenzamido)-2-methylpiperidin-1-yl]-3-({1-[2-(dimethylamino)ethyl]-1H-pyrazol-4-yl}amino)pyrazine-2-carboxamide] | 100 to 1000 | 100 to 1000 | 1000 to 10000 | 10 to 100 | 1000 to 10000 |  |  |  |  | 
Cc1cc(Nc2nc(N3CCC[C@@H](NC(=O)N4Cc5ccccc5C4=O)C3)cnc2C(N)=O)sn1 [Example A-183, N-[(3R)-1-{5-carbamoyl-6-[(3-methyl-1,2-thiazol-5-yl)amino]pyrazin-2-yl}piperidin-3-yl]-1-oxo-2,3-dihydro-1H-isoindole-2-carboxamide] | 10 to 100 | 10 to 100 | 100 to 1000 | ≤ 10 | 1000 to 10000 |  |  |  |  | 
C[C@@H]1[C@H](NC(=O)c2ccc(C(C)(C)C)cc2)CCCN1c1cnc(C(N)=O)c(Nc2ccc(N3CCN(C)CC3)cc2)n1 [Example A-184, 5-[(2R,3R)-3-(4-tert-butylbenzamido)-2-methylpiperidin-1-yl]-3-{[4-(4-methylpiperazin-1-yl)phenyl]amino}pyrazine-2-carboxamide] | > 10000 | 1000 to 10000 | 1000 to 10000 | ≤ 10 | > 10000 |  |  |  |  | 
COCCN(C)Cc1cc(Nc2nc(N3CCC[C@@H](NC(=O)c4ccc(C5CC5)cc4)[C@H]3C)cnc2C(N)=O)sn1 [Example A-185, 5-((2R,3R)-3-(4-cyclopropylbenzamido)-2-methylpiperidin-1-yl)-3-(3-(((2-methoxyethyl)(meth-yl)amino)meth-yl)isothiazol-5-ylamino)pyr-azine-2-carboxamide] | 100 to 1000 | 10 to 100 | > 10000 | ≤ 10 | 1000 to 10000 |  |  |  |  | 
COCCn1cc(Nc2nc(N3CCC[C@@H](NC(=O)c4ccc(C5CC5)cc4)[C@H]3C)cnc2C(N)=O)cn1 [Example A-186, 5-((2R,3R)-3-(4-cyclopropylbenzamido)-2-methylpiperidin-1-yl)-3-(1-(2-methoxylethyl)-1H-pyrazol-4-ylamino)pyrazine-2-carboxamide] | 100 to 1000 | 100 to 1000 | 1000 to 10000 | ≤ 10 | 1000 to 10000 |  |  |  |  | 
Cn1cc(Nc2nc(N3C[C@@H](NC(=O)c4ccc(C5CC5)cc4)CC(F)(F)C3)cnc2C(N)=O)cn1 [Example A-187, (S)-5-(5-(4-cyclopropylbenzamido)-3,3-difluoropiperidin-1-yl)-3-(1-methyl-1H-pyrazol-4-ylamino)pyrazine-2-carboxamide] | > 10000 | > 10000 | 1000 to 10000 | 100 to 1000 | 1000 to 10000 |  |  |  |  | 
Cn1cc(Nc2nc(N3C[C@H](NC(=O)c4ccc(C5CC5)cc4)CC(F)(F)C3)cnc2C(N)=O)cn1 [Example A-188, (R)-5-(5-(4-cyclopropylbenzamido)-3,3-difluoropiperidin-1-yl)-3-(1-methyl-1H-pyrazol-4-ylamino)pyrazine-2-carboxamide] | 100 to 1000 | 100 to 1000 | 1000 to 10000 | ≤ 10 | 1000 to 10000 |  |  |  |  | 
C[C@@H]1[C@H](NC(=O)c2ccc(C3CC3)c(Cl)c2)CCCN1c1cnc(C(N)=O)c(Nc2ccc(N3CCN(C)CC3)cc2)n1 [Example A-189, 5-((2R,3R)-3-(3-chloro-4-cyclopropylbenzamido)-2-methylpiperidin-1-yl)-3-(4-(4-methylpiperazin-1-yl)phenylamino)pyrazine-2-carboxamide] | 100 to 1000 | 100 to 1000 | 1000 to 10000 | ≤ 10 | 1000 to 10000 |  |  |  |  | 
C[C@@H]1[C@H](NC(=O)c2ccc(C3CC3)nc2)CCCN1c1cnc(C(N)=O)c(Nc2cnn(C)c2)n1 [Example A-190, 5-((2R,3R)-3-(6-cyclopropylnicotinamido)-2-methylpiperidin-1-yl)-3-(1-methyl-1H-pyrazol-4-ylamino)pyr-azine-2-carboxamide] | 100 to 1000 | 10 to 100 | 1000 to 10000 | ≤ 10 | 1000 to 10000 |  |  |  |  | 
Cc1cc(Nc2nc(N3CC[C@H](O)[C@@H](N4CCC[C@@H](Nc5cc(Cl)cc(C(F)(F)F)c5)C4=O)C3)nnc2C(N)=O)sn1 [Example E-10, 3-((3R,3'S,4'S)-3-(3-chloro-5-(trifluoromethyl)phenylamino)-4′-hydroxy-2-oxo-1,3′-bipiperidin-1-yl)-5-(3-methylisothiazol-5-ylamino)-1,2,4-triazine-6-carboxamide] |  |  |  |  |  | < 10 | ≤ 10 | 10 to 100 | ≤ 10 | 1000 to 10000
C=CC(=O)N1CCC[C@@H](Nc2nnc(C(N)=O)c(Nc3cc(C)ns3)n2)C1 [Example E-11, (R)-3-(1-acryloylpiperidin-3-ylamino)-5-(3-methylisothiazol-5-ylamino)-1,2,4-triazine-6-carboxamide] |  |  |  |  |  | 10 to 100 | 10 to 100 | ≤ 10 | ≤ 10 | < 10
C=CC(=O)N1CC[C@@H](N(C)c2nnc(C(N)=O)c(Nc3cc(C)ns3)n2)C1 [Example E-12, (R)-3-((1-acryloylpyrrolidin-3-yl)(methyl)amino)-5-(3-methylisothiazol-5-ylamino)-1,2,4-triazine-6-carboxamide] |  |  |  |  |  | 100 to 1000 | 10 to 100 | 10 to 100 | ≤ 10 | < 10
